Measured values reported in ChEMBL document CHEMBL1134837, “A conformational and structure-activity relationship study of cytotoxic 3,5-bis(arylidene)-4-piperidones and related N-acryloyl analogues” (J Med Chem, 2001).
pIC50: −log10 of the molar value. “And” between values parts separate entries of the source, which are not always exact repeats. Equal values may be shown once.

Key:
[1] = Average potency of all four cell lines (P388 cell line, L1210 cell line, Molt 4/C8 cell line, CEM T-lymphocytes); assay type: functional; parameters: unit not given here
P388 = assay: Cytotoxicity against murine P388 cells.; assay type: functional, cell-based; settings: Mus musculus
[2] = Cytotoxicity against human Molt 4/C8 cells.; assay type: functional, cell-based; settings: Molt4/C8
L1210 [3] = assay: Inhibitory effect on the biosyntheses of DNA in murine L1210 cells.; assay type: functional, cell-based; settings: Mus musculus
CCRF-CEM = assay: Cytotoxicity against CEM T-lymphocytes.; assay type: functional, cell-based; settings: Homo sapiens
L1210 [4] = assay: Cytotoxicity against murine L1210 cells.; assay type: functional, cell-based; settings: Mus musculus
L1210 [5] = assay: Inhibitory effect on the biosyntheses of RNA in murine L1210 cells.; assay type: functional, cell-based; settings: Mus musculus
L1210 [6] = assay: Inhibitory effect on the biosyntheses of protein in murine L1210 cells.; assay type: functional, cell-based; settings: Mus musculus
Jurkat [7] = assay: (§1) Cytotoxicity against human Jurkat T cells.; assay type: functional
[8] = The apoptotic index [(number of human jurkat cells with apoptotic nuclei/number of cells counted) 100]; assay type: functional
Jurkat [9] = assay: Inhibitory effect on the biosyntheses of RNA using human Jurkat T cells.; assay type: functional
Jurkat [10] = assay: as §1; assay type: functional, cell-based
Jurkat [11] = assay: Inhibitory effect on the biosyntheses of protein using human Jurkat T cells.; assay type: functional

| Compound | AP [1] | pIC50 (P388) | pIC50 [2] | pIC50 (L1210 [3]) | pIC50 (CCRF-CEM) | pIC50 (L1210 [4]) | pIC50 (L1210 [5]) | pIC50 (L1210 [6]) | IC80 (Jurkat [7]) | Apoptotic index [8] | Inhibition (Jurkat [9]) | pIC50 (Jurkat [10]) | Inhibition (Jurkat [11]) |
| --- | --- | --- | --- | --- | --- | --- | --- | --- | --- | --- | --- | --- | --- |
| O=C1/C(=C/c2ccccc2)CNC/C1=C\c1ccccc1 | 3.03 | 6.11 | – | – | – | – | – | – | – | – | – | – | – |
| O=C1/C(=C/c2ccc([N+](=O)[O-])cc2)CNC/C1=C\c1ccc([N+](=O)[O-])cc1 | 11.5 | 6.70 | 5.08 | 3.64 | 5.35 | 4.48 | 3.56 | 3.67 | – | – | – | – | – |
| COc1ccc(/C=C2\CNC/C(=C\c3ccc(OC)cc3)C2=O)cc1 | 174 | 5.81 | – | – | – | – | – | – | – | – | – | – | – |
| O=C1/C(=C/c2ccc(Cl)c(Cl)c2)CNC/C1=C\c1ccc(Cl)c(Cl)c1 | 47.8 | 6.00 | 4.40 | – | 4.68 | 3.89 | – | – | 4.83 µM | 48.3 | 26.4% and 31.1% | 5.51 | – |
| C=CC(=O)N1C/C(=C\c2ccc(OC)cc2)C(=O)/C(=C/c2ccc(OC)cc2)C1 | 4.36 | 6.17 | 5.64 | – | 5.57 | 4.93 | – | – | – | – | – | – | – |
| C=CC(=O)N1C/C(=C\c2ccc(Cl)c(Cl)c2)C(=O)/C(=C/c2ccc(Cl)c(Cl)c2)C1 | 0.92 | 7.30 | 5.98 | – | 5.97 | 5.82 | – | – | 0.94 µM | 63.5 | 67.6% | 6.24 | 58.1% |
| O=C1/C(=C/c2ccc(N3CC3)cc2)CNC/C1=C\c1ccc(N2CC2)cc1 | 157 | 6.19 | 3.65 | < 3.30 | 3.79 | 3.62 | 3.47 | 3.49 | – | – | – | – | – |
| C=CC(=O)N1C/C(=C\c2ccc(F)cc2)C(=O)/C(=C/c2ccc(F)cc2)C1 | 1.34 | 6.57 | 6.39 | – | 6.10 | 5.41 | – | – | – | – | – | – | – |
| N[C@@H](Cc1ccc(N(CCCl)CCCl)cc1)C(=O)O | 2.02 | – | – | < 4.00 | – | – | < 4.00 | 4.02 | – | – | 85.1% | – | 17.3% |
| C=CC(=O)N1C/C(=C\c2ccccc2)C(=O)/C(=C/c2ccccc2)C1 | 3.3 | 6.30 | 5.85 | – | 5.83 | 5.06 | – | – | – | – | – | – | – |
| O=C1/C(=C/c2ccc(Cl)cc2)CNC/C1=C\c1ccc(Cl)cc1 | 16.1 | 6.13 | – | – | – | – | – | – | – | – | – | – | – |
| C=CC(=O)N1C/C(=C\c2ccc(N3CC3)cc2)C(=O)/C(=C/c2ccc(N3CC3)cc2)C1 | >353 | 4.36 | 3.43 | – | < 3.30 | < 3.30 | – | – | – | – | – | – | – |
| C=CC(=O)N1C/C(=C\c2ccc([N+](=O)[O-])cc2)C(=O)/C(=C/c2ccc([N+](=O)[O-])cc2)C1 | 0.22 | 7.30 | 6.82 | 5.56 | 6.59 | 6.38 | 5.24 | 5.49 | – | – | – | – | – |
| C=CC(=O)N1C/C(=C\c2ccc(Cl)cc2)C(=O)/C(=C/c2ccc(Cl)cc2)C1 | 0.76 | 6.82 | 6.36 | – | 6.31 | 5.71 | – | – | – | – | – | – | – |
| O=C1/C(=C/c2ccc(F)cc2)CNC/C1=C\c1ccc(F)cc1 | 11 | 6.22 | – | – | – | – | – | – | – | – | – | – | – |
